# Reference: ChEMBL document CHEMBL6114974, “Development of novel BACE1 inhibitors with a hydroxyproline-derived N-amidinopyrrolidine scaffold” (Bioorg Med Chem, 2025)
# Target: Beta-secretase 1 (Homo sapiens, UniProt P56817)
# Test: Inhibition of recombinant BACE1 (unknown origin) using H-Ile-Lys-Thr-Glu-Glu-Ile-Ser-Glu-Val-Asn-Leu-Asp-Ala-Glu-Phe-Arg-His-Asp-Ser-Gly-NH2 as substrate measured after 90 mins by HPLC analysis
# Sequence of Beta-secretase 1 (P56817 whole entry): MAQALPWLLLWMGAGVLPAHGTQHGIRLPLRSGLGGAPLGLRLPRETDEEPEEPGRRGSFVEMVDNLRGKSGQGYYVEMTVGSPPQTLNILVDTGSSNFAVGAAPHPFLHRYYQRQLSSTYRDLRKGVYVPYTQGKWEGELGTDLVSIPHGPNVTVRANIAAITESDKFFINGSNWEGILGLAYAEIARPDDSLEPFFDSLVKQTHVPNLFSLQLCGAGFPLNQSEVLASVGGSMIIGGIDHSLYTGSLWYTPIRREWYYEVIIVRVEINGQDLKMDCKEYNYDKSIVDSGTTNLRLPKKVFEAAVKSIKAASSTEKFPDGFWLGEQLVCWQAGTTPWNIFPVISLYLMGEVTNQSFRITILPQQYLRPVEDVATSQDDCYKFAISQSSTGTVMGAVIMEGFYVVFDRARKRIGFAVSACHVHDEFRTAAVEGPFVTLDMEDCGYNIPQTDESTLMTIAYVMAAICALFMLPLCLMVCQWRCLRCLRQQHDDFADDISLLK
smiles,measurement,value
C[C@H]1OC[C@]2(c3cc(NC(=O)c4cnc(C(F)F)cn4)ccc3F)N=C(N)SC[C@H]12 [ELENBECESTAT],IC50,57 nM
